Measurements published in patent US20190223483A1, “SENSORY MODIFIER COMPOUNDS” (CARGILL, INCORPORATED, priority 2017, published 2019).
“Also recorded” adds a separate entry of the source.

Columns and labels:
Assay type in all cases: in vivo
[1] = Roundtable assessment of spikey/rounded sweetness quality (scale 0 to 3); design: key: 0=none; 1=mostly spikey, some rounded; 2=mostly rounded, some spikey; 3=rounded
Experimental: (§1) For other sweetness attributes, the solutions were tested by a panel of at least four individuals that are highly-trained in tasting steviol glycoside solutions. The highly-trained panelists used a roundtable methodology to assess each sweetness attribute. To test each solution, the highly-trained panelists dispensed approximately 2 mL of each solution into their own mouths by transfer pipet, dispersed the solution by moving their tongues, and recorded a value for the particular sweetness attribute being tested. Between tasting solutions, the panelists were able to cleanse their palates with water. For each sweetness attribute, the panelist agreed on a descriptive scale with relative intensities assigned for each sweetness attribute and then recorded the values for each sweetness attribute against this. For example, this roundtable assessment of sweetness linger assigned a scale of 0 to 6 with a score of 0 indicating no sweetness linger and a score of 6 indicating extreme sweetness linger. Roundtable assessment of sweetness linger assigned a scale of 0 to 6 with a score of 0 indicating no sweetness linger and a score of 6 indicating extreme sweetness linger (0=none, 1=trace, 2=slight, 3=moderate, 4=definite, 5=strong, 6=extreme). Roundtable assessment of rounded assigned a scale of 0 to 3 with a score of 0 indicating spikey and a score of 3 indicating desirable rounded (0=none, 1=mostly spikey, some rounded, 2=mostly rounded, some spikey, 3=rounded). Roundtable assessment of mouthfeel assigned a scale of 0 to 2 with a score of 0 indicating water and a score of 2 indicating syrupy (0=water, 1=sucrosey, 2=syrupy). Roundtable assessment of bitterness assigned a scale of 0 to 6 with a score of 0 indicating no bitterness and a score of 6 indicating extreme sweetness linger (0=none, 1=trace, 2=slight, 3=moderate, 4=definite, 5=strong, 6=extreme). Roundtable assessment of off tastes assigned a scale of 0 to 6 with a score of 0 indicating no bitterness and a score of 6 indicating extreme off tastes (0=none, 1=trace, 2=slight, 3=moderate, 4=definite, 5=strong, 6=extreme).
A series of assays were carried out to characterize a sweetness quality of a not preferred spikey quality (a zero value) to a more desirable rounded quality (a 3 value) of steviol glycoside compositions with sensory modifier compound using the roundtable methodology described in Example 1. Rounded quality has the sensory experience of being more like sucrose. […] Solutions of steviol glycosides and sensory modifier compound were prepared at increasing ratios of sensory modifier to steviol glycoside by weight. The steviol glycosides were RebA (4 glycoside groups), RebD (5 glycoside groups), RebM (6 glycoside groups), and OPS1-5(7 glycoside groups) and the sensory modifier compound was monocaffeoylquinic and dicaffeoylquinic acids prepared from yerba mate. […] The solutions were tested for spikey/rounded.

[2] = Roundtable assessment of bitterness (scale 0 to 6); design: key: 0 = none; 1 = trace/faint; 2 = slight; 3 = moderate; 4 = definite; 5 = strong; 6 = extreme
Experimental: as §1
A series of assays were carried out to characterize bitterness (0=none, 1=trace/faint, 2=slight, 3=moderate, 4=definite, 5=strong, 6=extreme) of steviol glycoside compositions with sensory modifier compound using the roundtable methodology described in Example 1. […] Solutions of steviol glycosides and sensory modifier compound were prepared at increasing ratios of sensory modifier to steviol glycoside by weight. The steviol glycosides were RebA (4 glycoside groups), RebD (5 glycoside groups), RebM (6 glycoside groups), and OPS1-5(7 glycoside groups) and the sensory modifier compound was monocaffeoylquinic and dicaffeoylquinic acids prepared from yerba mate. The concentration of steviol glycosides was 700 ppm in each solution. The solutions were tested for bitterness.

[3] = Roundtable assessment of astringency; design: key: 0 = none; 1 = trace/faint; 2 = slight; 3 = moderate; 4 = definite; 5 = strong; 6 = extreme
Experimental: Roundtable assessment of botanical notes assigned a scale of 0 to 5 with a score of 0 indicating no botanical notes and a score of 5 indicating strong (0=none, 1=trace, 2=slight, 3=moderate, 4=definite, 5=strong).
Solutions of steviol glycosides and sensory modifier compound were prepared at increasing ratios of sensory modifier to steviol glycoside by weight. […] The concentration of steviol glycosides was 700 ppm in each solution. The solutions were tested for astringency.

[4] = RebM 700 ppm + rosmarinic acid 195 ppm
[5] = RebM 700 ppm + rosmarinic acid 391 ppm
[6] = RebM 700 ppm + rosmarinic acid 586 ppm
[7] = steviol glycoside 700 ppm + yerba mate mono/dicaffeoylquinic acids 236 ppm
[8] = steviol glycoside 700 ppm + yerba mate mono/dicaffeoylquinic acids 300 ppm
[9] = steviol glycoside 700 ppm + yerba mate mono/dicaffeoylquinic acids 400 ppm
[10] = steviol glycoside 700 ppm + yerba mate mono/dicaffeoylquinic acids 472 ppm
[11] = steviol glycoside 700 ppm + yerba mate mono/dicaffeoylquinic acids 500 ppm
[12] = steviol glycoside 700 ppm + yerba mate mono/dicaffeoylquinic acids 600 ppm
[13] = steviol glycoside 700 ppm + yerba mate mono/dicaffeoylquinic acids 700 ppm
[14] = steviol glycoside 700 ppm + yerba mate mono/dicaffeoylquinic acids 708 ppm
[15] = steviol glycoside 700 ppm + yerba mate mono/dicaffeoylquinic acids 800 ppm
[16] = steviol glycoside 700 ppm, sensory modifier 0 ppm
[17] = RebM 700 ppm + cichoric acid (tartaric backbone) 772 ppm
[18] = RebM 700 ppm + cichoric acid (tartaric backbone) […]

Question: With `C=C1C[C@@]23CC[C@H]4[C@@](C)(CCC[C@@]4(C)C(=O)O[C@@H]4O[C@H](CO)[C@@H](O)[C@H](O[C@@H]5O[C@H](CO)[C@@H](O)[C@H](O)[C@H]5O)[C@H]4O[C@@H]4O[C@H](CO)[C@@H](O)[C@H](O)[C@H]4O)[C@@H]2CC[C@]1(O[C@@H]1O[C@H](CO)[C@@H](O)[C@H](O[C@@H]2O[C@H](CO)[C@@H](O)[C@H](O)[C@H]2O)[C@H]1O[C@@H]1O[C@H](CO)[C@@H](O)[C@H](O)[C@H]1O)C3` [RebM, Rebaudioside M] as the compound, how does the “Spikey/rounded (spikey = 0) (rounded = 3)” value (“Spikey/rounded” below) ([1]; RebM 100 ppm + yerba mate mono/dicaffeoylquinic acids 100 ppm (1:1)) read?
Answer: 0

Question: And the “Spikey/rounded” value ([1]; RebM 200 ppm + yerba mate mono/dicaffeoylquinic acids 200 ppm (1:1))?
Answer: 0

Question: What about the “Spikey/rounded” value ([1]; RebM 300 ppm + yerba mate mono/dicaffeoylquinic acids 300 ppm (1:1)) of the same compound?
Answer: 1

Question: And the “Spikey/rounded” value ([1]; RebM 400 ppm + yerba mate mono/dicaffeoylquinic acids 400 ppm (1:1))?
Answer: 1

Question: And the “Spikey/rounded” value ([1]; RebM 500 ppm + yerba mate mono/dicaffeoylquinic acids 500 ppm (1:1))?
Answer: 1

Question: What about the “Spikey/rounded” value ([1]; RebM 600 ppm + yerba mate mono/dicaffeoylquinic acids 600 ppm (1:1)) of the same compound?
Answer: 1

Question: And the “Spikey/rounded” value [1, 4]?
Answer: 0

Question: And the “Spikey/rounded” value [1, 5]?
Answer: 2

Question: What about the “Spikey/rounded” value [1, 6] of the same compound?
Answer: 3

Question: What about the “Spikey/rounded” value ([1]; RebM 700 ppm + yerba mate mono/dicaffeoylquinic acids 700 ppm (1:1)) of the same compound?
Answer: 2

Question: And the rounded quality ([1]; RebM 700 ppm, above 200 ppm sensory modifier)?
Answer: 2

Question: And the “Spikey/rounded” value ([1]; RebM 800 ppm + yerba mate mono/dicaffeoylquinic acids 800 ppm (1:1))?
Answer: 2

Question: And the “Spikey/rounded” value ([1]; RebM 900 ppm + yerba mate mono/dicaffeoylquinic acids 900 ppm (1:1))?
Answer: 2

Question: What about the “Spikey/rounded” value ([1]; RebM 1000 ppm + yerba mate mono/dicaffeoylquinic acids 1000 ppm (1:1)) of the same compound?
Answer: 2

Question: And the “Spikey/rounded” value ([1]; RebM 1100 ppm + yerba mate mono/dicaffeoylquinic acids 1100 ppm (1:1))?
Answer: 2

Question: And the “Spikey/rounded” value ([1]; RebM 1200 ppm + yerba mate mono/dicaffeoylquinic acids 1200 ppm (1:1))?
Answer: 2

Question: What about the “Spikey/rounded” value ([1]; RebM 1300 ppm + yerba mate mono/dicaffeoylquinic acids 1300 ppm (1:1)) of the same compound?
Answer: 2

Question: What about the “Spikey/rounded” value ([1]; RebM 1400 ppm + yerba mate mono/dicaffeoylquinic acids 1400 ppm (1:1)) of the same compound?
Answer: 2

Question: What about the “Spikey/rounded” value ([1]; RebM 1500 ppm + yerba mate mono/dicaffeoylquinic acids 1500 ppm (1:1)) of the same compound?
Answer: 2

Question: And the “Spikey/rounded” value ([1]; RebM 1600 ppm + yerba mate mono/dicaffeoylquinic acids 1600 ppm (1:1))?
Answer: 2

Question: What about the rounded quality ([1]; RebM solution with 300 ppm sensory modifier) of the same compound?
Answer: 3

Question: And the “Spikey/rounded” value [1, 7]?
Answer: 2

Question: What about the “Spikey/rounded” value [1, 8] of the same compound?
Answer: 2

Question: What about the “Spikey/rounded” value [1, 9] of the same compound?
Answer: 3

Question: What about the “Spikey/rounded” value [1, 10] of the same compound?
Answer: 3

Question: What about the “Spikey/rounded” value [1, 11] of the same compound?
Answer: 3

Question: What about the “Spikey/rounded” value [1, 12] of the same compound?
Answer: 2

Question: And the “Spikey/rounded” value [1, 13]?
Answer: 3

Question: What about the “Spikey/rounded” value [1, 14] of the same compound?
Answer: 3

Question: What about the “Spikey/rounded” value [1, 15] of the same compound?
Answer: 3

Question: What about the “Spikey/rounded” value [1, 16] of the same compound?
Answer: 0

Question: What about the Bitterness [2, 17] of the same compound?
Answer: 0

Question: And the Bitterness [2, 18]?
Answer: 0

Question: And the Bitterness [2, 4]?
Answer: 0

Question: And the Bitterness [2, 5]?
Answer: 0

Question: And the Bitterness ([2]; RebM 700 ppm, about 200 ppm sensory modifier and above)?
Answer: not perceptible

Question: What about the Sweetness linger ([2]; Table 16: RebM 700 ppm + yerba mate mono/dicaffeoylquinic acids 236 ppm) of the same compound?
Answer: 0

Question: And the Sweetness linger ([2]; Table 16: RebM 700 ppm + yerba mate mono/dicaffeoylquinic acids 300 ppm)?
Answer: 0

Question: What about the Sweetness linger ([2]; Table 16: RebM 700 ppm + yerba mate mono/dicaffeoylquinic acids 400 ppm) of the same compound?
Answer: 0

Question: What about the Sweetness linger ([2]; Table 16: RebM 700 ppm + yerba mate mono/dicaffeoylquinic acids 472 ppm) of the same compound?
Answer: 0

Question: What about the Sweetness linger ([2]; Table 16: RebM 700 ppm + yerba mate mono/dicaffeoylquinic acids 500 ppm) of the same compound?
Answer: 0

Question: And the Sweetness linger ([2]; Table 16: RebM 700 ppm + yerba mate mono/dicaffeoylquinic acids 600 ppm)?
Answer: 0

Question: What about the Sweetness linger ([2]; Table 16: RebM 700 ppm + yerba mate mono/dicaffeoylquinic acids 700 ppm) of the same compound?
Answer: 0

Question: What about the Sweetness linger ([2]; Table 16: RebM 700 ppm + yerba mate mono/dicaffeoylquinic acids 708 ppm) of the same compound?
Answer: 0

Question: What about the Sweetness linger ([2]; Table 16: RebM 700 ppm + yerba mate mono/dicaffeoylquinic acids 800 ppm) of the same compound?
Answer: 0

Question: What about the Sweetness linger ([2]; Table 16: RebM 700 ppm, sensory modifier 0 ppm) of the same compound?
Answer: 5

Question: What about the Bitterness ([2]; quinic, tartaric or 3-(3,4-dihydroxyphenyl)lactic acid backbone modifier above 200 ppm) of the same compound?
Answer: none

Question: And the Bitterness [2, 7]?
Answer: 0

Question: What about the Bitterness [2, 10] of the same compound?
Answer: 0

Question: And the Bitterness [2, 14]?
Answer: 0

Question: What about the Bitterness [2, 16] of the same compound?
Answer: 5

Question: What about the Astringency ([3]; RebM 700 ppm + cichoric acid (tartaric backbone) 514 ppm) of the same compound?
Answer: 0

Question: And the Astringency [3, 17]?
Answer: 4

Question: What about the Astringency [3, 18] of the same compound?
Answer: 0

Question: What about the Astringency [3, 4] of the same compound?
Answer: 0

Question: And the Astringency [3, 5]?
Answer: 0

Question: And the Astringency [3, 6]?
Answer: 0

Question: What about the Astringency ([3]; RebM 700 ppm, 0 ppm to 700 ppm of quinic backbone modifier) of the same compound?
Answer: no perceptible astringency; also recorded: imperceptible

Question: What about the Astringency [3, 7] of the same compound?
Answer: 0

Question: And the Astringency [3, 8]?
Answer: Not observed

Question: And the Astringency [3, 9]?
Answer: Not observed

Question: And the Astringency [3, 10]?
Answer: 0

Question: What about the Astringency [3, 11] of the same compound?
Answer: 0

Question: What about the Astringency [3, 12] of the same compound?
Answer: Not observed

Question: What about the Astringency [3, 13] of the same compound?
Answer: Not observed

Question: What about the Astringency [3, 14] of the same compound?
Answer: 0

Question: And the Astringency [3, 15]?
Answer: Not observed

Question: What about the Astringency [3, 16] of the same compound?
Answer: 0
